Source: ChEMBL document CHEMBL1201862, “PubChem BioAssay data set” (2004)
Active and inactive are the calls of the source. Cut-off read from the data, not from the text of the source, for most assays here: actives have a measured EC50 and inactives only a lower limit.

Key:
[1] = fluconazole-exposed Candida albicans growth modulators – fluorescence, retest, confirmation (AID 2467); type: functional, cell-based
[2] = system: H9c2; test: cells; type: functional, cell-based; settings: Rattus norvegicus, H9c2, Myocardium;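 note: confirmatory concentration-response retest of ultra-high-throughput screening hits for modulation of myocardial damage; cell death induced by hydrogen peroxide oxidative stress; compound pretreatment for 60 min then peroxide exposure for 2 h; potency is for protecting the cells against peroxide damage rather than for killing them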
[3] = NIH-3T3 fibroblast cytotoxicity, dose response, cytotoxicity control, cell-based, fluorescence, Alamar Blue, secondary assay (AID 2327); type: functional;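 note: NIH-3T3 mouse fibroblasts cultured with fluconazole at 8 µg/mL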
[4] = target: ATP-dependent molecular chaperone HSP82 (Candida albicans (strain WO-1) (Yeast), UniProt C4YTQ8); test: steroid-induced GRE reporter decrease in yeast – S. cerevisiae, luminescence, Hsp90 inhibitor project, dose response (AID 2400); type: functional, cell-based;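 note: beta-galactosidase luminescence from glucocorticoid response element reporter as proxy for Hsp90 function; inhibitor potency where signal loss means Hsp90 inhibition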
ATP-dependent molecular chaperone HSP82, sequence (C4YTQ8 whole entry): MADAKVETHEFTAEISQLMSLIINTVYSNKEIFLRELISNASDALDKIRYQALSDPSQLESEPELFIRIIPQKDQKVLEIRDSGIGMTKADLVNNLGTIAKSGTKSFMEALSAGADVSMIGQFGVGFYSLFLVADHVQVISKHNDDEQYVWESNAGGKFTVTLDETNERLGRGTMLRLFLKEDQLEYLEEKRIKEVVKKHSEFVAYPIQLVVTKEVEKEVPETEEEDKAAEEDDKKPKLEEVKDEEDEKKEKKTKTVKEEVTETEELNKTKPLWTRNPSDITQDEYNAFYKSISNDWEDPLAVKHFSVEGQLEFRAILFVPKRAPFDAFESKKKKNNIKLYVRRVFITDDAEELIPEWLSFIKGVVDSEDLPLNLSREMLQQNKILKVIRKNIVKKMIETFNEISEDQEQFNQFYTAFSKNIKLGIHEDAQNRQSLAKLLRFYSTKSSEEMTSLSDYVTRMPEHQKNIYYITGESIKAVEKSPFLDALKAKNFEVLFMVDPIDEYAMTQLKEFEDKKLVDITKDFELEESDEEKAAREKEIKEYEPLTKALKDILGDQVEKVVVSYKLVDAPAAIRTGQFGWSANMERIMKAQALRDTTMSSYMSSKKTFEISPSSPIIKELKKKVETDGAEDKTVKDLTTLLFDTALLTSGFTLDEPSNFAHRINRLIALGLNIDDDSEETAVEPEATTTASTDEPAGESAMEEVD

[5] = target: T1, Serine/threonine-protein phosphatase (Candida dubliniensis (strain CD36 / CBS 7987 / NCPF 3949 / NRRLY-17841) (Yeast), UniProt B9W6M3); test: blockers of CaCl2-induced CDRE-lacZ signaling – S. cerevisiae, luminescence, secondary, dose response (AID 2388); type: functional, cell-based;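 note: yeast reporter cells carrying a calcineurin-responsive lacZ construct stimulated with calcium chloride; luminescent beta-galactosidase reporter signal in whole cells rather than isolated phosphatase activity; potency for inhibition where a drop in reporter signal means calcineurin blockade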
T1 sequence (B9W6M3 whole entry): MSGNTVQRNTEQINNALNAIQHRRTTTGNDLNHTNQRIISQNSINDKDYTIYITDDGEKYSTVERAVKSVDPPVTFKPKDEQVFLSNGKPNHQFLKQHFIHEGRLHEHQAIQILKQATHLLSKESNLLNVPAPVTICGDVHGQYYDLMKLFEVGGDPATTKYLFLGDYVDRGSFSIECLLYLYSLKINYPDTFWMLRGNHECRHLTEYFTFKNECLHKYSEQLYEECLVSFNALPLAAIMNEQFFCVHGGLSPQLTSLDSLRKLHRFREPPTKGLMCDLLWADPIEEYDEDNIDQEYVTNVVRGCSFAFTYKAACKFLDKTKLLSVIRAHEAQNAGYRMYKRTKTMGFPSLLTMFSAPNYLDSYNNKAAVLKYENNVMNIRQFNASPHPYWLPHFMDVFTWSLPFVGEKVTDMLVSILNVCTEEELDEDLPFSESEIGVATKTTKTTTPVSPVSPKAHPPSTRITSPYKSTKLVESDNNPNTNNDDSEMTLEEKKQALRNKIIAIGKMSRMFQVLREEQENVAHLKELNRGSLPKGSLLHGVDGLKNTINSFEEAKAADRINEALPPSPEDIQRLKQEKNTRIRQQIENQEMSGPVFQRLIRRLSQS

[6] = target: T2, Endoribonuclease toxin MazF (Escherichia coli K-12, UniProt P0AE70); test: activation of MazEF endoribonuclease cleavage – biochemical, fluorescence, single-stranded RNA substrate, uHTS hits, dose response (AID 588481); type: functional
T2 sequence (P0AE70 whole entry): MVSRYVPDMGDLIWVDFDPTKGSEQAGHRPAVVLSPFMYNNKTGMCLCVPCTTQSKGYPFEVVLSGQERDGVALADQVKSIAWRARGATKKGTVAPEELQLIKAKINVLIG

[7] = target: T2, Endoribonuclease toxin MazF; test: substrate-only fluorescence increase artefacts – biochemical, single-stranded RNase substrate, counter-screen for MazEF activator project, dose response (AID 588502); type: functional
[8] = Luminescence Cell-Based Dose Retest to Confirm Inhibitors of Cancer Stem Cells. [Related pubchem assays (depositor defined):AID2717, AID2721]; type: functional, Homo sapiens; settings: Homo sapiens
[9] = target: T3, RNA-binding protein pos-1 (Caenorhabditis elegans, UniProt G5EF15); test: disruptors of C. elegans POS-1 RNA interaction – biochemical, fluorescence polarization, dose response (AID 1964);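 note: purified POS-1 fused to maltose binding protein made in E. coli; potency of compounds blocking POS-1 binding to fluorescent RNA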
T3 sequence (G5EF15 whole entry): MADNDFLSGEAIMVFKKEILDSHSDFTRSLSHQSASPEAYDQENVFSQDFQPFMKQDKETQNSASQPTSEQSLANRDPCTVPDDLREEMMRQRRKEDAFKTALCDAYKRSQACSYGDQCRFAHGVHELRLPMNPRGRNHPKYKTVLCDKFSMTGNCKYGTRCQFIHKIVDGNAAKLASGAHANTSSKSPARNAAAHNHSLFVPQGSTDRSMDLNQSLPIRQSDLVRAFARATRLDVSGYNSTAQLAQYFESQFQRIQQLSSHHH

[10] = target: T4, Zinc finger protein mex-5 (Caenorhabditis elegans, UniProt Q9XUB2); test: potency of MEX-5 RNA-binding blockers – biochemical, C. elegans, fluorescence polarization, dose response (AID 1960)
T4 sequence (Q9XUB2 whole entry): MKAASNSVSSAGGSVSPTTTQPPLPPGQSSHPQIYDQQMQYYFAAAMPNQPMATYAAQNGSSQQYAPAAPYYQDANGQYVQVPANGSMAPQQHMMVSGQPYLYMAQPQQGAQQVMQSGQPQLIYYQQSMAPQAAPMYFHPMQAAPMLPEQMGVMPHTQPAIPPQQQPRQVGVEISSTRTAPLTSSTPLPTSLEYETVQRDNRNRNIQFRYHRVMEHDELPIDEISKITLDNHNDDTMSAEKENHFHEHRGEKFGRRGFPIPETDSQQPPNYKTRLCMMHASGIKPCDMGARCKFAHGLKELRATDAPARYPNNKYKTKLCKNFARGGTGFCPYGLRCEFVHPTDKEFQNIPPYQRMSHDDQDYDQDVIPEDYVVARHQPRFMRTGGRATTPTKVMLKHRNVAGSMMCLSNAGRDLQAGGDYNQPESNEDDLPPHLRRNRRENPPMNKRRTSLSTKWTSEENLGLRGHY

[11] = system: HeLa; test: ATP-based viability loss in HeLa cells – cell-based, CellTiter-Glo luminescence, cherry-pick samples, cytotoxicity control for MITF activator project, dose response (AID 540259); type: functional; settings: Homo sapiens
[12] = target: T5, Heat shock factor protein 1 (Mus musculus, UniProt P38532); test: enhancement of HSF1-driven luciferase signal – cell-based, NIH3T3, luminescence, dose retest, confirmation (AID 435004); type: functional;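 note: stress induced by proteasome inhibitor MG132 added 30 min after compound; luciferase reporter driven by HSF1 response element in NIH3T3 cells; actives raise luminescence as potentiators of the MG132 stress response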
T5 sequence (P38532 whole entry): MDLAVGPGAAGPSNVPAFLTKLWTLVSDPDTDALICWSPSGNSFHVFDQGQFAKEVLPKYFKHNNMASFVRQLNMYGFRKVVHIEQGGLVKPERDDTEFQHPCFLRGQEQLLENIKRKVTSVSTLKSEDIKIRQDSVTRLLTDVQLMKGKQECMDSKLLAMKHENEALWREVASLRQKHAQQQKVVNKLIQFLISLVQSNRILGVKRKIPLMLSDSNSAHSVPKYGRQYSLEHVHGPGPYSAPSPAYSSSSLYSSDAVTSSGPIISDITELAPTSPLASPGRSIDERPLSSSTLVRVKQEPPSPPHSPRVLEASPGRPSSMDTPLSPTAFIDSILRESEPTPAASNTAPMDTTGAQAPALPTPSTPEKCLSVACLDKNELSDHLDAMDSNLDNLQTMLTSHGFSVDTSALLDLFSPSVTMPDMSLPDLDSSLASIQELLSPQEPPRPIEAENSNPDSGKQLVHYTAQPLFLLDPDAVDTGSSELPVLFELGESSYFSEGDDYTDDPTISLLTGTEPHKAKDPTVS

[13] = system: BJ; test: growth inhibition of engineered Ras-driven BJ cells – cell-based, alamar blue fluorescence, cherrypicked samples, dose response (AID 2631); type: functional; settings: Homo sapiens;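 note: confirmatory dose-response assay in RAS-dependent BJ fibroblasts engineered with TERT, LT and ST, with cytotoxicity read by fluorescence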
[14] = alpha-synuclein stem-loop luciferase translation blockers – H4 neuroglioma cells, luminescence, confirmation (AID 1988); type: functional, cell-based
[15] = luciferase reporter signal suppression in cells – H4 neuroglioma cells, luminescence, dose response (AID 1990); type: functional, cell-based
[16] = DRD fibroblast viability loss – cell-based, non-viral oncogenic, luminescence, dose response (AID 1934); type: functional; settings: Homo sapiens
[17] = system: BJ; test: cells; type: functional, cell-based; settings: Homo sapiens
[18] = system: BJ; test: BJ-TERT-LT-ST fibroblast viability loss – cell-based, RAS-independent, luminescence, dose response (AID 1935); type: functional; settings: Homo sapiens;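 note: BJ fibroblasts immortalized with TERT plus LT and ST oncogenes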
[19] = system: BJ; test: BJ-TERT fibroblast viability loss – cell-based, RAS-independent, luminescence, dose response (AID 1933); type: functional; settings: Homo sapiens
[20] = Luminescence Cell-Based Dose Response HTS to Identify Inhibitors of 5'UTR Stem-Loop Driven Prion Protein mRNA Translation in H4 Neuroglioblastoma Cells. [Related pubchem assays: 1827 (Project Summary), 1813 (Primary HTS)]; type: functional

Compound | EC50 [1] | EC50 [3] | EC50 [4] | EC50 [5] | EC50 [6] | EC50 [7] | other results
CC(C)(C)c1ccc(OCCCC(=O)NNC(=O)c2ccccc2O)cc1 | > 38 µM (not active) | 51 µM (inconclusive) | > 160 µM (inactive) | > 180 µM (inactive) |  |  | IC50 [2]: > 79 µM (inactive)
CC1=NN(c2ccccc2)C(=O)/C1=C/c1cc(C)n(C2CC2)c1C |  |  |  |  | > 99 µM (inactive) | > 99 µM (inactive) | 
COc1ccc2nc(SCC(C)=O)c(C#N)cc2c1 |  |  |  |  | > 99 µM (inactive) | 16.5 µM (active) | 
CCCC(=O)NC(c1ccco1)c1cc([N+](=O)[O-])c2cccnc2c1O (configuration not stated) | 0.826 µM (active) | 20.3 µM (active) | > 150 µM (inactive) | > 180 µM (inactive) |  |  | AC50 [8]: 2.02 µM (active)
CCCCOC(=O)Cn1c2ccc(OC)cc2c2nc3ccccc3nc21 |  |  |  |  | > 99 µM (inactive) | 24.7 µM (inactive) | EC50 [9]: > 300 µM (not active); EC50 [10]: > 300 µM (not active)
O=C1/C(=C/c2cccnc2)CCc2c1[nH]c1ccccc21 | 1.95 µM (active) | > 160 µM (inactive) | > 150 µM (inactive) | > 180 µM (inactive) |  |  | AC50 [11]: 18.7 µM (active)
O=C(NCc1ccccc1)c1c(Cl)nc(Cl)c(Cl)c1Cl |  |  |  |  |  |  | EC50 [12]: 57.8 µM (active); EC50 [13]: 3.69 µM (active); EC50 [14]: > 120 µM (not active); EC50 [15]: 10.3 µM (active); EC50 [16]: 9.83 µM (active); EC50 [17]: 77.2 µM (inconclusive); EC50 [18]: 7.26 µM (inconclusive); EC50 [19]: 6.46 µM (active); EC50 [20]: > 120 µM (not active)
